Consider 39 molecules from patent US7745450B2, “Pyrazolo[4,3-d]pyrimidines, processes for their preparation and methods for therapy” (Institute of Experimental Botany, priority 2002, dated 2010).

In general, GI50 refers to the concentration giving 50% growth inhibition. As usually defined, the IC50 is the concentration at which inhibition is half-maximal. Higher therefore signals weaker potency in that assay.

One experiment deals with B16. In words: In vitro cytotoxic activity, Calcein AM. It is filed as cell-based. Conditions: Mus musculus, B16, 72 h, three days.
Experiment [1] relates to CEM (human lymphoblastoid leukemia). Description: In vitro cytotoxic activity, Calcein AM. It is filed as cell-based. Conditions: Homo sapiens, 72 h, three days. How it is done: We have been using the following cell lines: HELA (human cervical carcinoma), MCF7 (human breast adenocarcinoma), NIH 3T3 (mouse fibroblasts), HOS (human osteogenic sarcoma), HL 60 (human promyelocytic leukemia), G 361 (human malignant melanoma), K562 (human erythroleukemia), CEM (human lymphoblastoid leukemia). Tested drugs were added to the cell cultures in six different concentration and kept at 37° C. and 5% CO2 for three days. All cell lines were grown in DMEM medium (Gibco BRL) supplemented with 10% (v/v) fetal bovine serum and L-glutamine and maintained at 37° C. in a humidified atmosphere with 5% CO2. 10^4 cells were seeded into each well of 96 well plate, allowed to stabilize for at least 2 h and then tested compounds were added at various concentrations ranging from 200 to 0.2 μM in triplicates. Three days after drug addition Calcein AM solution (Molecular Probes) was added and let to enter the cells for 1 hour. Fluorescence of viable cells was quantified employing Fluoroskan Ascent (Microsystems).

Another experiment has as its target MMK1 protein kinase (Vicia faba, UniProt A0AAV1B7B8). Description: MMK1 protein kinase activity. Format: biochemical. As to the method: Protein extraction and purification of pant CDK by binding to p13^suc1-beads or immunopurification with an antibody specific to the cdc2a-MS protein was carried out as described previously (Bögre et al. 1997, Plant Physiol. 113, 1997, 841-852). The MMK1 protein kinase was purified with a specific antibody from Vicia faba extracts as described by Bögre et al. 1997a, Plant Cell 9, 75-83). Protein kinase activity was measures as described above in Example 20. The quantification of radioactivity incorporated into histone H1 or myelin basic protein was undertaken using phosphoimager (FIG. 2).

Chain of MMK1 protein kinase (A0AAV1B7B8 1-394): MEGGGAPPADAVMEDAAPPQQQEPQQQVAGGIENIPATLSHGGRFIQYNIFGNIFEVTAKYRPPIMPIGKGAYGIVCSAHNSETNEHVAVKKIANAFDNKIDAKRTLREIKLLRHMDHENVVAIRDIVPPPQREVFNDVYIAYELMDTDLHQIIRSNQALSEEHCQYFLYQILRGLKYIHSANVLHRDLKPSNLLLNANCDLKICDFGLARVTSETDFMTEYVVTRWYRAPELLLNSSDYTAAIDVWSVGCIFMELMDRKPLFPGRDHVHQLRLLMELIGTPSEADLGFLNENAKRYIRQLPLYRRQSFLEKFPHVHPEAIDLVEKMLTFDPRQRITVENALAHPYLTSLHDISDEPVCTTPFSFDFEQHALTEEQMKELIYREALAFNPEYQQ

Take `CC[C@H](CO)Nc1nc(NCc2ccc(Cl)c(N)c2N)c2[nH]nc(C(C)C)c2n1`: the GI50 in the experiment with B16 is 9.9 µM; in experiment [1], 4.6 µM. At MMK1 protein kinase, this molecule yielded an IC50 of 0.4 µM.
The like results for `CC(C)c1n[nH]c2c(NCc3ccc(O)c(O)c3)nc(N[C@@H](CO)C(C)C)nc12` were, in that order, 5.8 µM, 4.2 µM and 0.31 µM.
For `CC(C)c1n[nH]c2c(N(C)Cc3ccc(O)c(O)c3)nc(N[C@@H](CO)C(C)C)nc12`, in that order: 4.8 µM, 3.5 µM and 0.11 µM.
`CC[C@H](CO)Nc1nc(N(C)CCc2ccc(O)c(O)c2)c2[nH]nc(C(C)C)c2n1`: the concentration for 50% growth inhibition (GI50) with B16 is 18.6 µM; in experiment [1], 13.1 µM. This molecule also had a concentration for half-maximal inhibition (IC50) on MMK1 protein kinase of 1.5 µM.
For `CCC(CO)Nc1nc(NC(CO)c2ccccc2)c2[nH]nc(C(C)C)c2n1` (stereo not drawn), in that order: 13.7 µM, 7.9 µM and 0.21 µM.
Regarding `CC(=O)Oc1ccccc1CNc1nc(NCCO)nc2c(C)n[nH]c12`, the GI50 in the experiment with B16 was 16.2 µM; in experiment [1] it was 14.5 µM. Besides, it took 3.3 µM to reach half-maximal inhibition against MMK1 protein kinase (IC50).
Turning to `CC[C@H](CO)Nc1nc(Nc2ccccc2)c2[nH]nc(C(C)C)c2n1`, the 50% growth inhibitory concentration (GI50) was 18.4 µM in the experiment on B16 and 13.2 µM in experiment [1]. Further, inhibition against MMK1 protein kinase was half-maximal at 0.11 µM (IC50).
As for `CC(C)c1n[nH]c2c(NC(CO)c3ccccc3)nc(NC(CO)C(C)C)nc12` (stereo not drawn), the GI50 with B16 is 4.8 µM; in experiment [1] it was 2.6 µM. Moreover, on MMK1 protein kinase, the IC50 came out at 0.15 µM.
As for `Cc1n[nH]c2c(NCc3ccc(Cl)c(N)c3)nc(NCCO)nc12`, the GI50 in the experiment on B16 is 13.5 µM; in experiment [1] it was 12.4 µM. In addition, the 50% inhibitory concentration (IC50) against MMK1 protein kinase turned out to be 1.8 µM.
Take `CC[C@H](CO)Nc1nc(NCc2ccccc2O)c2[nH]nc(C(C)C)c2n1`: the concentration for 50% growth inhibition (GI50) in the experiment with B16 was 9.3 µM; in experiment [1], 7.8 µM. Besides, half-maximal inhibition at MMK1 protein kinase (IC50) was put at 0.012 µM.
As to `Cc1cccc(CNc2nc(NCCO)nc3c(C)n[nH]c23)c1O`, the results for the concentration for 50% growth inhibition (GI50) (in the experiment on B16; in experiment [1]) were 3.1 µM and 2.8 µM, respectively. In addition, the midpoint of inhibition against MMK1 protein kinase, the IC50, lay at 0.34 µM.
Regarding `CC(=O)c1ccccc1CNc1nc(N[C@@H](CO)C(C)C)nc2c(C(C)C)n[nH]c12`, the figures for the GI50 (in the experiment with B16; in experiment [1]) were 18.2 µM and 14.5 µM, respectively. On MMK1 protein kinase, this molecule yielded an IC50 of 0.05 µM.
The like results for `COc1cc(O)c(CNc2nc(NCCO)nc3c(C)n[nH]c23)cc1O` were, in that order, 3.7 µM, 4.2 µM and 0.16 µM.
The like results for `CC[C@H](CO)Nc1nc(NCc2ccccc2OC(C)=O)c2[nH]nc(C(C)C)c2n1` were, in that order, 19.3 µM, 13.8 µM and 0.2 µM.
The like results for `CC[C@H](CO)Nc1nc(Nc2ccc(Cl)c(N)c2)c2[nH]nc(C(C)C)c2n1` were, in that order, 7.5 µM, 4.7 µM and 0.013 µM.
`CC(=O)c1ccccc1CNc1nc(NCCO)nc2c(C)n[nH]c12`: the GI50 in the experiment on B16 was 9.3 µM; in experiment [1], 10.8 µM. Inhibition at MMK1 protein kinase was half-maximal at 0.4 µM (IC50).
In the case of `CC[C@H](CO)Nc1nc(NCc2cccc(C(C)=O)c2)c2[nH]nc(C(C)C)c2n1`, the GI50 is 19.1 µM in the experiment on B16 and 11.5 µM in experiment [1]. In addition, the half-inhibitory concentration (IC50) on MMK1 protein kinase is 0.04 µM.
The like results for `CC[C@H](CO)Nc1nc(NCc2ccccc2C(C)=O)c2[nH]nc(C(C)C)c2n1` were, in that order, 16.3 µM, 11.9 µM and 0.015 µM.
For `CC[C@H](CO)Nc1nc(NCc2ccc(Cl)c(N)c2)c2[nH]nc(C(C)C)c2n1`, in that order: 18.7 µM, 11.4 µM and 0.024 µM.
The like results for `Cc1n[nH]c2c(Nc3cccc(Cl)c3)nc(NCCO)nc12` were, in that order, 9.8 µM, 8.9 µM and 0.9 µM.
Turning to `Cc1n[nH]c2c(Nc3ccc(Cl)cc3)nc(NCCO)nc12`, the GI50 in the experiment with B16 was 8.4 µM; in experiment [1], 7.6 µM. On MMK1 protein kinase, this molecule displayed a 50% inhibitory concentration (IC50) of 0.18 µM.
`COc1cc(O)c(CNc2nc(NCCO)nc3c(C)n[nH]c23)c(O)c1`: the GI50 with B16 was 4.7 µM; in experiment [1], 2.8 µM. The molecule also returned a half-inhibitory concentration (IC50) on MMK1 protein kinase of 0.09 µM.
On to `Cc1n[nH]c2c(NCc3ccc(Cl)c(N)c3N)nc(NCCO)nc12`, for which the GI50 with B16 was 6.5 µM; in experiment [1], 5.6 µM. The same molecule displayed an IC50 against MMK1 protein kinase of 2.8 µM.
In the case of `CC[C@H](CO)Nc1nc(NCc2ccc(OC)c(O)c2O)c2[nH]nc(C(C)C)c2n1`, the GI50 in the experiment on B16 is 6.2 µM; in experiment [1] it was 4.7 µM. This molecule also registered a concentration for half-maximal inhibition (IC50) against MMK1 protein kinase of 0.005 µM.
The like results for `CC[C@H](CO)Nc1nc(NCc2ccc(O)c(O)c2)c2[nH]nc(C(C)C)c2n1` were, in that order, 15.7 µM, 9.2 µM and 1.1 µM.
For `CC(=O)Oc1cccc(CNc2nc(NCCO)nc3c(C)n[nH]c23)c1`, in that order: 16.7 µM, 15.4 µM and 3.4 µM.
The like results for `CC(=O)c1cccc(CNc2nc(NCCO)nc3c(C)n[nH]c23)c1` were, in that order, 14.2 µM, 13.5 µM and 0.9 µM.
For `CC(C)c1n[nH]c2c(Nc3cc(N)cc(Cl)c3)nc(N[C@@H](CO)C(C)C)nc12`, the concentration for 50% growth inhibition (GI50) was 14.5 µM in the experiment on B16 and 9.5 µM in experiment [1]. The molecule also registered a half-inhibitory concentration (IC50) against MMK1 protein kinase of 0.015 µM.
For `Cc1n[nH]c2c(Nc3ccccc3)nc(NCCO)nc12` [2-hydroxyethylamino / anilino / methyl], in that order: 12.4 µM, 10.2 µM and 2.5 µM.
Consider `CC(C)c1n[nH]c2c(N(C)CCc3ccc(O)c(O)c3)nc(N[C@@H](CO)C(C)C)nc12`, for which the GI50 is 9.7 µM with B16 and 8.4 µM in experiment [1]. At MMK1 protein kinase, the half-inhibitory concentration (IC50) was 0.15 µM.
The like results for `Cc1n[nH]c2c(NCc3cccc(Cl)c3O)nc(NCCO)nc12` were, in that order, 2.1 µM, 1.5 µM and 0.38 µM.
Regarding `CC[C@H](CO)Nc1nc(Nc2ccc(O)c(C(=O)O)c2)c2[nH]nc(C(C)C)c2n1`, the GI50 is 25.8 µM in the experiment on B16 and 18.4 µM in experiment [1]. At MMK1 protein kinase, this molecule gave an IC50 of 0.03 µM.
The like results for `COc1ccc(CNc2nc(NCCO)nc3c(C)n[nH]c23)c(O)c1O` were, in that order, 4.2 µM, 3.5 µM and 0.29 µM.
As to `Cc1n[nH]c2c(NCc3c(N)cccc3Cl)nc(NCCO)nc12`, the figures for the concentration for 50% growth inhibition (GI50) (in the experiment with B16; in experiment [1]) were 7.2 µM and 5.8 µM, respectively. Further, the IC50 on MMK1 protein kinase is 0.86 µM.
The like results for `COc1cccc(CNc2nc(NCCO)nc3c(C)n[nH]c23)c1O` were, in that order, 4.2 µM, 3.5 µM and 0.45 µM.
In the case of `CC(=O)c1cccc(CNc2nc(N[C@@H](CO)C(C)C)nc3c(C(C)C)n[nH]c23)c1`, the values for the concentration for 50% growth inhibition (GI50) (in the experiment with B16; in experiment [1]) were 9.4 µM and 8.6 µM, respectively. This molecule also had a 50% inhibitory concentration (IC50) against MMK1 protein kinase of 0.005 µM.
In the case of `CC[C@H](CO)Nc1nc(N(C)Cc2ccc(O)c(O)c2)c2[nH]nc(C(C)C)c2n1`, the GI50 with B16 is 19.4 µM; in experiment [1], 11.6 µM. This molecule also returned a concentration for half-maximal inhibition (IC50) against MMK1 protein kinase of 0.51 µM.
For `CC[C@H](CO)Nc1nc(NCc2cccc(Cl)c2O)c2[nH]nc(C(C)C)c2n1`, in that order: 2.4 µM, 1.2 µM and 0.012 µM.
Take `CC[C@H](CO)Nc1nc(NCc2c(N)cccc2Cl)c2[nH]nc(C(C)C)c2n1`: the GI50 in the experiment with B16 is 8.3 µM; in experiment [1], 4.6 µM. Moreover, the IC50 against MMK1 protein kinase was 0.0035 µM.
